Measurements: patent US20180271996A1, “COMBINATION THERAPIES OF HER2-TARGETED ANTIBODY-DRUG CONJUGATES” (Mersana Therapeutics, Inc., priority 2017, published 2018)
Non-standard residues stand in square brackets, D forms with d. Residues, ends and D or L forms follow the SMILES beside them. *: point of attachment. Dolaproine = CO[C@@H]([C@@H]1CCCN1)[C@@H](C)C(=O)O; Dil = CC[C@H](C)[C@H](NC)[C@@H](CC(=O)O)OC; NMe2Val = CC(C)[C@@H](C(=O)*)N(C)C; NH(3-hydroxypropyl) = OCCCN*

Legend:
JIMT-1 = test: ATP release from cells (ENLITEN ATP Assay), JIMT-1; type: cell-based, human; conditions: AF-HPA or XMT-1519 conjugate at 0.5 μM, 24 h, mitoxantrone positive control, compared to untreated (control) cells, FIG. 2
Description: (§1) Cancer cells undergoing apoptosis in response to specific anticancer therapies are immunogenic (also known as immunogenic cell death (ICD)), as long as they emit precise DAMPs in a spatiotemporally defined fashion. […] Mitoxantrone, a known strong inducer of ICD and ATP release, was used as a positive control. Briefly, two HER2 expressing cell lines, JIMT-1 (cat. # ACC589, DSMZ Cell Collection) and SKBR3 (cat # ATCC® HTB 30™, American Tissue Culture Collection) were seeded at a density of 7500 cells per well in 24 wells plate, allowed to grow for 24 h, and then treated with AF-HPA or XMT-1519 conjugate at 0.5 μM in 100 μl in […] (Cat#11875-119, Thermo Fisher Scientific) for 24 h. The cells were then pelleted by centrifugation and ATP release was measured using ENLITEN® ATP Assay System (Promega) according to manufacturer's instructions.

SKBR3 [1] = test: ATP release from cells (ENLITEN ATP Assay), SKBR3; type: cell-based; conditions: AF-HPA or XMT-1519 conjugate at 0.5 μM, 24 h, mitoxantrone positive control, compared to untreated (control) cells, FIG. 2
Description: as §1

NCI-N87 cells = test: Calreticulin exposure on cell membrane (flow cytometry), NCI-N87; type: cell-based, human; conditions: 2.5 h at 37° C
Description: (§2) High HER2-expressing cell lines, NCI-N87 (800,000 HER2 receptors), SKBR3 (700,000 HER2 receptors) and low HER2 expressing cell line HT-29 (16,000 HER2 receptors) were re-suspended at a density of 2×10^6 cells/mL in 100 μl PBS containing 2% FBS. Cells in 96 well plate (Corning® 96 Well Clear Round Bottom Polypropylene Not Treated Microplate cat#3879) were treated with XMT-1519 conjugate or AF-HPA at 1 μM or with mitoxantrone, a strong calreticulin exposure inducer, at 0.01 to 1 μM for 2.5 h at 37° C. Cells were then incubated with anti-calreticulin antibody (clone 16B11.1 Cat: MABT217, Millipore Sigma, 1:200) in ice cold PBS containing 2% FBS for 1 h on ice, washed twice with cold PBS containing 2% and then incubated for 20 min on ice with a secondary antibody (Alexa 647-anti Mouse IgG (H+L) 1:800, Thermo Fisher Scientific Cat#:A32728) in ice cold PBS containing 2% FBS. Thereafter the cells were stained with Annexin V (Pacific Blue™ cat# A35122, Thermo Fisher Scientific) according to manufacturer's instructions to identify apoptotic cell population. Necrotic cell population was labeled by propidium iodide (cat# P3566 Thermo Fisher Scientific) at 1:1000 dilution. Cells were then analyzed by flow cytometry using MACSQuant® Analyzer 10. Apoptotic and necrotic cell populations were excluded and only live cells for measured for calreticulin exposure.

human HER2 = human HER2 (Homo sapiens, UniProt P04626); test: Inhibition of HER2 functional activity in vitro
Description: The HER2 antibodies disclosed herein serve to modulate, block, inhibit, reduce, antagonize, neutralize or otherwise interfere with the functional activity of HER2. HER2. Functional activities of HER2 include for example, modulation of PI3K-Akt pathway activity. […] PI3K-Akt pathway activity is assessed using any art-recognized method for detecting PI3K-Akt pathway activity, including, but not limited to detecting levels of phosphorylated Akt in the presence and absence of an antibody or antigen binding fragment disclosed herein.
The HER2 antibodies are considered to completely modulate, block, inhibit, reduce, antagonize, neutralize or otherwise interfere with HER2 functional activity when the level of HER2 functional activity in the presence of the HER2 antibody is decreased by at least 95%, e.g., by 96%, 97%, 98%, 99% or 100% as compared to the level of HER2 functional activity in the absence of binding with a HER2 antibody described herein. The HER2 antibodies are considered to partially modulate, block, inhibit, reduce, antagonize, neutralize or otherwise interfere with HER2 functional activity when the level of HER2 activity in the presence of the HER2 antibody is decreased by less than 95%, e.g., 10%, 20%, 25%, 30%, 40%, 50%, 60%, 75%, 80%, 85% or 90% as compared to the level of HER2 activity in the absence of binding with a HER2 antibody described herein.

[2] = tested on: TumorGraft™ model of non-small cell lung carcinoma (CTG-0860); test: Antitumor activity in low passage TumorGraft model of non-small cell lung carcinoma in humanized mice (CTG-0860); type: in vivo; conditions: per Table 1: XMT-1519 conjugate 1.0 mg/kg IV q7dx3; pembrolizumab 2.5 mg/kg IP q5dx6; n=5 per group; FIG. 1
Description: Unmatched human leukocyte antigen (HLA) humanized CD34+ engrafted immune compromised female mice (Taconic NOG) were subcutaneously implanted unilaterally on the left flank with tumor fragments (n=5 for each group and two additional mice for tumor infiltration lymphocytes measurement for the test compounds only). […] Tumor size was measured at the times indicated in FIG. 1 using digital calipers. Tumor volume was calculated and was used to determine the tumor growth inhibition. Control mice were sacrificed when tumors reached a size of 1500 mm^3. Tumor volumes are reported as the mean±SEM for each group.
When tumors reached a size of 1500 mm^3 in control mice, they were sacrificed as well as two mice from each treatment groups, and tumor infiltration lymphocytes were analyzed. At the study endpoint (day 49) all the surviving mice were sacrificed and tumor infiltration lymphocytes were analyzed. Tumors were dissociated and analyzed for tumor infiltrating lymphocytes by flow cytometry for the following markers: human CD45 infiltrating lymphocytes, hCD3 (T cells), hCD4 (helper T cells), hCD8 (cytotoxic T cells), hCD19 (B cells), T cells activation and proliferation—hCD25.

SKBR3 [3] = test: Calreticulin exposure on cell membrane (flow cytometry), SKBR3; type: cell-based; conditions: SKBR3 (700,000 HER2 receptors); 1 μM, 2.5 h at 37° C; FIG. 3
Description: as §2

HT-29 = test: Calreticulin exposure on cell membrane (flow cytometry), HT-29; type: cell-based; conditions: HT-29 (16,000 HER2 receptors, low HER2); 1 μM, 2.5 h at 37° C; FIG. 3
Description: as §2

[4] = tested on: 4T1-7bb7 cells (human HER2-expressing mouse 4T1 breast cancer); test: Tumor response in 4T1-7bb7 syngeneic mouse model (Example 5); type: in vivo, Balb/c mice; conditions: per Table 2: XMT-1519 conjugate 4.0 mg/kg IV qwx2; Kadcyla 15.0 mg/kg IV qwx2; anti-PD1 mAb 10.0 mg/kg IP days 0, 2, 4, 7, 10; n=13; FIG. 5
Description: Tumor growth inhibition (% TGI) was defined as the percent difference in median tumor volumes (MTVs) between treated and control groups.
Treatment efficacy was determined from the incidence and magnitude of regression responses of the tumor size observed during the study. Treatment may cause partial regression (PR) or complete regression (CR) of the tumor in an animal. In a PR response, the tumor volume was 50% or less of its Day 1 volume for three consecutive measurements during the course of the study, and equal to or greater than 13.5 mm^3 for one or more of these three measurements. In a CR response, the tumor volume was less than 13.5 mm^3 for three consecutive measurements during the course of the study. An animal with a CR response at the termination of a study was additionally classified as a tumor-free survivor (TFS). Animals were monitored for regression responses.
Six to eight week old female, Balb/c mice (Jackson Labs, Bar Harbor, Me.) were subcutaneously implanted unilaterally on the left flank with 4×10^4/mouse 4T1-7bb7 cells (n=13 mice/group). […] Tumor sizes were measured twice a week using digital calipers, and average tumor volume was calculated to determine tumor growth inhibition. […]

[5] = NCI-N87 (800,000 HER2 receptors), 1 μM, live cells only, FIG. 3

Row | Compound | ATP release (JIMT-1) | ATP release (SKBR3 [1]) | calreticulin exposure on cell membrane (NCI-N87 cells; NCI-N87, mitoxantrone at 0.01 to 1 μM, FIG. 3 panel (a)) | functional activity of HER2 (human HER2) | calreticulin exposure on cell membrane (NCI-N87 cells; [5]) | tumor response (tumor volume / tumor growth inhibition) [2] | calreticulin exposure on cell membrane (SKBR3 [3]) | calreticulin exposure on cell membrane (HT-29) | tumor response (tumor growth inhibition / anti-tumor efficacy) [4]
1 | O=C1c2c(O)ccc(O)c2C(=O)c2c(NCCNCCO)ccc(NCCNCCO)c21 [mitoxantrone, reference compound] | ATP was released | ATP was released | dose dependent calreticulin exposure | – | – | – | – | – | –
2 | XMT 1519: fully human HER2 monoclonal antibody, heavy chain SEQ ID NO: 5, light chain SEQ ID NO: 6 | – | – | – | inhibit the functional activity of HER2 in vitro | – | – | – | – | –
3 | CC[C@H](C)[C@@H]([C@@H](CC(=O)N1CCC[C@H]1[C@H](OC)[C@@H](C)C(=O)N[C@@H](Cc1ccccc1)C(=O)NCCCO)OC)N(C)C(=O)[C@@H](NC(=O)[C@H](C(C)C)N(C)C)C(C)C [AF-HPA, Auristatin F-hydroxypropyl amide] (NMe2Val-V[Dil][Dolaproine]F-{NH(3-hydroxypropyl)}) | ATP was released | ATP was released | – | – | induced calreticulin exposure | – | – | – | –
4 | XMT 1519-(EG2-MI-(7.7 kDa PHF-BA-(AF-HPA-Ala))) [XMT-1519 conjugate] | ATP was released | ATP was released | – | – | induced calreticulin exposure | decrease in tumor volume | induced calreticulin exposure | induced calreticulin exposure | significant inhibition of tumor growth
